Tests used:
Type in all cases: in vivo
[1] = test system: kochia (Kochia scoparia); experiment: Test B pre-/postemergence plant response
In short: (§1)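 Ratings reflect visual injury versus untreated controls, from 0 for no effect to 100 for complete control, assessed roughly 10 days after treatment. Formulation: non-phytotoxic solvent mix with surfactant; pre- and postemergence sprays on plants grown in loam soil and sand.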

[2] = test system: Italian ryegrass (Lolium multiflorum); experiment: Test B pre-/postemergence plant response
In short: as §1

[3] = test system: ragweed (common ragweed, Ambrosia elatior); experiment: Test B pre-/postemergence plant response
In short: as §1

[4] = test system: yellow nutsedge (Cyperus esculentus); experiment: Test D pre-/postemergence plant response; details: Postemergence; for Nutsedge, Yellow plant response rating: 31 g ai/ha, scale 0 to 100 (0 no effect, 100 complete control); for Plant response rating, Nutsedge, Yellow: scale 0 to 100, 0 no effect, 100 complete control
In short: (§2)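 Seeds sown in loam–sand blend got preemergence sprays of test chemicals in a non-phytotoxic solvent with surfactant; postemergence sprays went on plants at 1- to 4-leaf stage (2 to 18 cm) in peat/vermiculite medium. After 13 to 15 days in greenhouse, visual injury versus controls scored 0 (no effect) to 100 (complete control).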

[5] = test system: pigweed (Amaranthus retroflexus); experiment: Test D pre-/postemergence plant response; details: Postemergence; for Pigweed plant response rating: 31 g ai/ha, scale 0 to 100 (0 no effect, 100 complete control); for Plant response rating, Pigweed: scale 0 to 100, 0 no effect, 100 complete control
In short: as §2

[6] = test system: blackgrass (Alopecurus myosuroides); experiment: Test D pre-/postemergence plant response; details: Postemergence; for Blackgrass plant response rating: scale 0 to 100 (0 no effect, 100 complete control); for Plant response rating, Blackgrass: scale 0 to 100, 0 no effect, 100 complete control
In short: as §2

[7] = test system: barnyardgrass (Echinochloa crus-galli); experiment: Test D pre-/postemergence plant response; details: Postemergence; for Barnyardgrass plant response rating: scale 0 to 100 (0 no effect, 100 complete control); for Plant response rating, Barnyardgrass: scale 0 to 100, 0 no effect, 100 complete control
In short: as §2

[8] = test system: corn (Zea mays); experiment: Test D pre-/postemergence plant response; details: Postemergence; for Corn plant response rating: scale 0 to 100 (0 no effect, 100 complete control); for Plant response rating, Corn: scale 0 to 100, 0 no effect, 100 complete control
In short: as §2

[9] = test system: Italian ryegrass (Lolium multiflorum); experiment: Test D pre-/postemergence plant response; details: Postemergence; for Ryegrass, Italian plant response rating: 31 g ai/ha, scale 0 to 100 (0 no effect, 100 complete control); for Plant response rating, Ryegrass, Italian: scale 0 to 100, 0 no effect, 100 complete control
In short: as §2

[10] = test system: galium (catchweed bedstraw, Galium aparine); experiment: Test D pre-/postemergence plant response; details: Postemergence; for Galium plant response rating: 31 g ai/ha, scale 0 to 100 (0 no effect, 100 complete control); for Plant response rating, Galium: scale 0 to 100, 0 no effect, 100 complete control
In short: as §2

[11] = test system: ragweed (common ragweed, Ambrosia elatior); experiment: Test D pre-/postemergence plant response; details: Postemergence; for Ragweed plant response rating: 31 g ai/ha, scale 0 to 100 (0 no effect, 100 complete control); for Plant response rating, Ragweed: scale 0 to 100, 0 no effect, 100 complete control
In short: as §2

[12] = test system: large (Lg) crabgrass (Digitaria sanguinalis); experiment: Test D pre-/postemergence plant response; details: Postemergence; for Crabgrass, Large plant response rating: scale 0 to 100 (0 no effect, 100 complete control); for Plant response rating, Crabgrass, Large: scale 0 to 100, 0 no effect, 100 complete control
In short: as §2

[13] = test system: giant foxtail (Setaria faberii); experiment: Test D pre-/postemergence plant response; details: Postemergence; for Foxtail, Giant plant response rating: scale 0 to 100 (0 no effect, 100 complete control); for Plant response rating, Foxtail, Giant: scale 0 to 100, 0 no effect, 100 complete control
In short: as §2

[14] = test system: oilseed rape (Brassica napus); experiment: Test D pre-/postemergence plant response; details: Postemergence; for Oilseed Rape plant response rating: 31 g ai/ha, scale 0 to 100 (0 no effect, 100 complete control); for Plant response rating, Oilseed Rape: scale 0 to 100, 0 no effect, 100 complete control
In short: as §2

[15] = 31 g ai/ha, Preemergence, 0 to 100 scale where 0 is no effect and 100 is complete control
[16] = 125 g ai/ha, postemergence, 0 to 100 scale, 0 no effect, 100 complete control
[17] = Postemergence, 31 g ai/ha, 0 to 100 scale (0 no effect, 100 complete control)
[18] = Preemergence, 125 g ai/ha, 0 to 100 scale (0 no effect, 100 complete control)
[19] = Postemergence, 500 g ai/ha, 0 to 100 scale (0 no effect, 100 complete control)
[20] = Preemergence, 500 g ai/ha, 0 to 100 scale where 0 is no effect and 100 is complete control

CC(F)(F)c1cc(-c2ccccc2Oc2ncc(Br)cn2)no1 [Compound 149]
Plant response rating, Kochia [1, 15]: 20 | Plant response rating, Kochia [1, 16]: 100 | Plant response rating, Kochia [1, 17]: 90 | Kochia plant response rating [1, 18]: 80 | Plant response rating, Ryegrass, Italian [2, 15]: 0 | Plant response rating, Ryegrass, Italian [2, 16]: 20 | Plant response rating, Ryegrass, Italian [2, 17]: 0 | Ryegrass, Italian plant response rating [2, 18]: 10 | Plant response rating, Ragweed [3, 15]: 0 | Plant response rating, Ragweed [3, 16]: 20 | Plant response rating, Ragweed [3, 17]: 10 | Ragweed plant response rating [3, 18]: 0 | Nutsedge, Yellow plant response rating [4]: 0 | Plant response rating, Nutsedge, Yellow ([4]; 62 g ai/ha): 5 | Plant response rating, Nutsedge, Yellow ([4]; 125 g ai/ha): 5 | Pigweed plant response rating [5]: 85 | Plant response rating, Pigweed ([5]; 62 g ai/ha): 95 | Plant response rating, Pigweed ([5]; 125 g ai/ha): 90 | Blackgrass plant response rating ([6]; 16 g ai/ha): 0 | Blackgrass plant response rating ([6]; 31 g ai/ha): 0 | Plant response rating, Blackgrass ([6]; 62 g ai/ha): 0 | Plant response rating, Blackgrass ([6]; 125 g ai/ha): 30 | Barnyardgrass plant response rating ([7]; 16 g ai/ha): 5 | Barnyardgrass plant response rating ([7]; 31 g ai/ha): 5 | Plant response rating, Barnyardgrass ([7]; 62 g ai/ha): 5 | Plant response rating, Barnyardgrass ([7]; 125 g ai/ha): 10 | Corn plant response rating ([8]; 16 g ai/ha): 0 | Corn plant response rating ([8]; 31 g ai/ha): 5 | Plant response rating, Corn ([8]; 62 g ai/ha): 5 | Plant response rating, Corn ([8]; 125 g ai/ha): 5 | Ryegrass, Italian plant response rating [9]: 0 | Plant response rating, Ryegrass, Italian ([9]; 62 g ai/ha): 0 | Plant response rating, Ryegrass, Italian ([9]; 125 g ai/ha): 0 | Galium plant response rating [10]: 60 | Plant response rating, Galium ([10]; 62 g ai/ha): 70 | Plant response rating, Galium ([10]; 125 g ai/ha): 95 | Ragweed plant response rating [11]: 30 | Plant response rating, Ragweed ([11]; 62 g ai/ha): 30 | Plant response rating, Ragweed ([11]; 125 g ai/ha): 45 | Crabgrass, Large plant response rating ([12]; 16 g ai/ha): 5 | Crabgrass, Large plant response rating ([12]; 31 g ai/ha): 5 | Plant response rating, Crabgrass, Large ([12]; 62 g ai/ha): 10 | Plant response rating, Crabgrass, Large ([12]; 125 g ai/ha): 15 | Foxtail, Giant plant response rating ([13]; 16 g ai/ha): 5 | Foxtail, Giant plant response rating ([13]; 31 g ai/ha): 10 | Plant response rating, Foxtail, Giant ([13]; 62 g ai/ha): 10 | Plant response rating, Foxtail, Giant ([13]; 125 g ai/ha): 30 | Oilseed Rape plant response rating [14]: 30 | Plant response rating, Oilseed Rape ([14]; 62 g ai/ha): 60 | Plant response rating, Oilseed Rape ([14]; 125 g ai/ha): 85

Cc1cc(-c2ccccc2Oc2ncc(Cl)cn2)no1 [Compound 153]
Plant response rating, Kochia [1, 16]: 90 | Plant response rating, Kochia [1, 19]: 90 | Kochia plant response rating [1, 18]: 20 | Plant response rating, Kochia [1, 20]: 100 | Plant response rating, Ryegrass, Italian [2, 16]: 30 | Plant response rating, Ryegrass, Italian [2, 19]: 60 | Ryegrass, Italian plant response rating [2, 18]: 0 | Plant response rating, Ryegrass, Italian [2, 20]: 20 | Plant response rating, Ragweed [3, 16]: 20 | Plant response rating, Ragweed [3, 19]: 100 | Ragweed plant response rating [3, 18]: 0 | Plant response rating, Ragweed [3, 20]: 40 | Nutsedge, Yellow plant response rating [4]: 0 | Plant response rating, Nutsedge, Yellow ([4]; 62 g ai/ha): 5 | Plant response rating, Nutsedge, Yellow ([4]; 125 g ai/ha): 5 | Pigweed plant response rating [5]: 20 | Plant response rating, Pigweed ([5]; 62 g ai/ha): 40 | Plant response rating, Pigweed ([5]; 125 g ai/ha): 70 | Blackgrass plant response rating ([6]; 16 g ai/ha): 0 | Blackgrass plant response rating ([6]; 31 g ai/ha): 0 | Plant response rating, Blackgrass ([6]; 62 g ai/ha): 0 | Plant response rating, Blackgrass ([6]; 125 g ai/ha): 0 | Barnyardgrass plant response rating ([7]; 16 g ai/ha): 5 | Barnyardgrass plant response rating ([7]; 31 g ai/ha): 5 | Plant response rating, Barnyardgrass ([7]; 62 g ai/ha): 5 | Plant response rating, Barnyardgrass ([7]; 125 g ai/ha): 5 | Corn plant response rating ([8]; 16 g ai/ha): 0 | Corn plant response rating ([8]; 31 g ai/ha): 0 | Plant response rating, Corn ([8]; 62 g ai/ha): 5 | Plant response rating, Corn ([8]; 125 g ai/ha): 5 | Ryegrass, Italian plant response rating [9]: 0 | Plant response rating, Ryegrass, Italian ([9]; 62 g ai/ha): 0 | Plant response rating, Ryegrass, Italian ([9]; 125 g ai/ha): 0 | Galium plant response rating [10]: 70 | Plant response rating, Galium ([10]; 62 g ai/ha): 70 | Plant response rating, Galium ([10]; 125 g ai/ha): 80 | Ragweed plant response rating [11]: 10 | Plant response rating, Ragweed ([11]; 62 g ai/ha): 25 | Plant response rating, Ragweed ([11]; 125 g ai/ha): 55 | Crabgrass, Large plant response rating ([12]; 16 g ai/ha): 0 | Crabgrass, Large plant response rating ([12]; 31 g ai/ha): 5 | Plant response rating, Crabgrass, Large ([12]; 62 g ai/ha): 5 | Plant response rating, Crabgrass, Large ([12]; 125 g ai/ha): 10 | Foxtail, Giant plant response rating ([13]; 16 g ai/ha): 0 | Foxtail, Giant plant response rating ([13]; 31 g ai/ha): 0 | Plant response rating, Foxtail, Giant ([13]; 62 g ai/ha): 5 | Plant response rating, Foxtail, Giant ([13]; 125 g ai/ha): 5 | Oilseed Rape plant response rating [14]: 40 | Plant response rating, Oilseed Rape ([14]; 62 g ai/ha): 60 | Plant response rating, Oilseed Rape ([14]; 125 g ai/ha): 85

From patent US10131652B2, “Pyrimidinyloxy benzene derivatives as herbicides” (E. I. DU PONT DE NEMOURS AND COMPANY, priority 2014, dated 2018)
